Experimental findings from patent US12583856B2, “Inhibitors of protein kinase A” (Blueprint Medicines Corporation, priority 2021, dated 2026) are described below.

One test addresses T1, PRKACA (Homo sapiens, UniProt P17612).
T1 construct: purchased Millipore 539482
Kind of test: PRKACA assay at Km (EZ Reader 2 electrophoretic mobility shift). The class given is biochemical. The conditions noted are these: 5 μM ATP (Km), 1 μM Kemptide, 90 minutes at 25 C; read-out: Enz PRKACA IC50. The protocol: (§1) A Perkin Elmer electrophoretic mobility shift platform (the EZ Reader 2) was used to assess the activity of test compounds against a kinase of interest. Fluorescently labeled substrate peptide was incubated in the presence of kinase, ATP, and the test compound, so that a portion of the peptide was phosphorylated by the enzyme. At the end of the reaction, the mix of phosphorylated (product) and non-phosphorylated (substrate) peptide containing solutions was passed through the microfluidic system of the Perkin Elmer EZ Reader 2 under an applied potential difference. The presence of the phosphate group on the product peptide provided a difference in mass and charge between those of the substrate peptide, resulting in a separation of the substrate and product pools in the sample. As the stopped solutions passed under the instrument's LED light the phosphorylated and un-phosphorylated fluorophore bound peptides were detected and resolved as separate peaks. The ratio between these peaks therefore reflected the test compound's impact on the kinase at that concentration in that well under those conditions.
PRKACA assay at Km: In each well of a 384-well plate, 0.007 ng/ul (0.18 nM) of PRKACA enzyme (Millipore: 539482) was incubated in a total of 12.5 μl of buffer (100 mM HEPES pH 7.5, 0.015% Brij 35, 10 mM MgCl2, 1 mM DTT) with 1 μM Kemptide peptide substrate (5-FAM-LRRASLG) (Anaspec 29933) and 5 μM ATP at 25 C for 90 minutes in the presence or absence of a dosed concentration series of test compounds (1% DMSO final concentration). The reaction was stopped by the addition of 80 μl of Stop buffer (100 mM HEPES pH 7.5, 0.015% Brij 35, 35 mM EDTA and 0.2% of Coating Reagent 3 (Perkin Elmer)). The plate was then read on the EZ Reader 2 (protocol settings: −2.0 psi, upstream voltage −700, downstream voltage −2700, post sample sip 60 seconds). Data was normalized to 0% and 100% inhibition controls and the IC50 calculated using a 4-parameter fit using GraphPad Prism.

In test [1] the test system is PKA (phosphorylation of VASP on Serine 157). The test is described as follows: Cellular potency assay: P-VASP(157) HTRF in Forskolin-stimulated Huh7 cells. The test is classed as cell-based. As to conditions: Homo sapiens, Huh-7, 4 hours compound, 5 μM Forskolin 30 minutes, read-out: Phos VASP(S157) IC50. The text has this: PKA directly phosphorylate VASP on Serine 157. Phosphorylation of VASP on Serine 157. P-VASP(157) was therefore used as a readout of PKA cellular activity. P-VASP(157) was detected with a HTRF assay, which is based on a TR-FRET sandwich immunoassay-based format comprising two specific anti-VASP antibodies following the manufactors protocol (Cisbio, Catalog No. 63ADK066PEH). PKA was activated in the assay by the addition of Forskolin (Sigma-Aldrich, Catalog No. F3917).
Dose response in Forskolin-stimulated human Huh7 cells was measured as follows. Briefly, Huh7 cells were plated at a density of 2×10^4 cells per well in a 384-well opti-well cell culture plate in 15 μl of serum- and phenol-free Dulbecco's Modified Eagle Medium (DMEM, Gibco Catalog No. 21063-029), and incubated for over night at 37° C., 5% CO2. The next day, 3 μl of a dosed concentration series of test compound (0.24%) DMSO final concentration) was added to the wells, and the cells were incubated for an additional 4 hours at 37° C., 5% CO2. 2 μl of Forskolin was added at a final concentration of 5 μM and the plates were incubated for 30 minutes at 37° C., 5% CO2. 5 μl of lysis buffer containing 1% HALT protease cocktail inhibitors (ThermoFisher, Catalog No. 78430), was added to the cells and the mixture was incubated under gentle shaking for 30 min at room temperature. 10 μl of this lysate was transferred to a 384-well proxi plate and 2.5 μL of the premixed antibody solution was added. An antibody solution was prepared by combining phopho-VASP cryptate antibody and phospho-VASP d2 antibody, at twenty-fold dilution into a buffer solution following the manufactors' protocol. The lysate and antibody mixture was incubated for either 3 h at room temperature or overnight at 4° C. The fluorescence emission at two different wavelengths (665 nm and 620 nm) was read on an EnVision instrument.

A further test has as its target T2, PRKACA-DNAJB1 (Homo sapiens, UniProt P17612).
T2 construct: DNAJB1 (fusion partner, P25685); the other entry of the earlier key: DNAJB1 (P25685, DnaJ homolog subfamily B member 1)
The test is described as follows: PRKACA-DNAJB1 enzyme assay (EZ Reader 2 electrophoretic mobility shift). The test is classed as biochemical. As to conditions: read-out: Enz PRKACA-DNAJB1 IC50. Here is the method: as §1

As to `O=C(N[C@@H]1c2ccccc2OC[C@@H]1O)c1ccc(-c2ccnc3[nH]cc(F)c23)cc1` [Compound 123], the figures for the IC50 (at PRKACA; in test [1]; at PRKACA-DNAJB1) were at most 1 nM, below 50 nM and at most 1 nM, respectively.

For the compound `O=C(N[C@@H]1c2c(F)cccc2OC[C@@H]1O)c1ccc(-c2ccnc3[nH]ccc23)nc1` [Compound 126, N-[(3R,4R)-5-Fluoro-3-hydroxy-3,4-dihydro-2H-1-benzopyran-4-yl]-6-{1H-pyrrolo[2,3-b]pyridin-4-yl}pyridine-3-carboxamide], the IC50 at PRKACA was at most 1 nM; in test [1], below 50 nM; at PRKACA-DNAJB1, 1.01 to 5 nM.

Regarding `O=C(N[C@@H]1c2c(F)cccc2OC[C@@H]1O)c1ccc(-c2ccnc3[nH]ccc23)cn1` [Compound 127], the IC50 at PRKACA is at most 1 nM; in test [1] it was below 50 nM; on PRKACA-DNAJB1 it was 1.01 to 5 nM.

Regarding `O=C(N[C@H]1CCOc2cccc(F)c21)c1ccc(-c2ccnc3[nH]cc(F)c23)cc1` [Compound 128], the IC50 at PRKACA was at most 1 nM; in test [1], below 50 nM; at PRKACA-DNAJB1 it was at most 1 nM.

For the compound `O=C(N[C@H]1CCOc2ccc(F)c(F)c21)c1ccc(-c2ccnc3[nH]ccc23)cc1` [Compound 129, N-[(4S)-5,6-Difluoro-3,4-dihydro-2H-1-benzopyran-4-yl]-4-{1H-pyrrolo[2,3-b]pyridin-4-yl}benzamide], the 50% inhibitory concentration (IC50) at PRKACA was at most 1 nM; in test [1], below 50 nM; on PRKACA-DNAJB1, at most 1 nM.

`O=C(N[C@@H]1c2ccccc2C[C@H]1OCCO)c1ccc(-c2ccnc3[nH]ccc23)cc1` [Compound 134, N-[(1R,2R)-2-(2-Hydroxyethoxy)-2,3-dihydro-1H-inden-1-yl]-4-{1H-pyrrolo[2,3-b]pyridin-4-yl}benzamide]: the IC50 on PRKACA is at most 1 nM; in test [1], below 50 nM; on PRKACA-DNAJB1, at most 1 nM.

With `Cc1c[nH]c2nccc(-c3ccc(C(=O)N[C@@H]4c5c(F)cccc5OC[C@@H]4O)cn3)c12` [Compound 135], the concentration for half-maximal inhibition (IC50) on PRKACA was at most 1 nM; in test [1] it was 0.01 to 100 nM; at PRKACA-DNAJB1, at most 1 nM.

Consider `O=C(N[C@@H]1c2c(Cl)cccc2OC[C@@H]1O)c1ccc(-c2ccnc3[nH]ccc23)nc1` [Compound 139], for which the 50% inhibitory concentration (IC50) is at most 1 nM on PRKACA, 0.01 to 100 nM in test [1] and 1.01 to 5 nM at PRKACA-DNAJB1.

On to `O=C(N[C@@H]1c2c(F)cccc2OC[C@@H]1O)c1ccc(-c2ccnc3[nH]cc(F)c23)nc1` [Compound 141], for which the concentration for half-maximal inhibition (IC50) is at most 1 nM at PRKACA, 0.01 to 100 nM in test [1] and at most 1 nM on PRKACA-DNAJB1.

With `O=C(N[C@@H]1c2ccccc2C[C@H]1N1CCCC1)c1ccc(-c2ccnc3[nH]ccc23)cc1` [Compound 142], the IC50 is at most 1 nM on PRKACA, below 50 nM in test [1] and at most 1 nM at PRKACA-DNAJB1.

Take `O=C(N[C@@H]1c2c(ccc(F)c2F)C[C@@H]1O)c1ccc(-c2ccnc3[nH]cc(F)c23)nc1` [Compound 146]: the IC50 at PRKACA is at most 1 nM; in test [1], 0.01 to 100 nM; at PRKACA-DNAJB1, at most 1 nM.

`Cc1c[nH]c2nccc(-c3ccc(C(=O)N[C@H]4C[C@@H](C)Oc5ccc(F)c(F)c54)cn3)c12` [Compound 148, N-[(2R,4S)-5,6-Difluoro-2-methyl-3,4-dihydro-2H-1-benzopyran-4-yl]-6-{3-methyl-1H-pyrrolo[2,3-b]pyridin-4-yl}pyridine-3-carboxamide]: the IC50 was at most 1 nM on PRKACA, 0.01 to 100 nM in test [1] and at most 1 nM on PRKACA-DNAJB1.

Consider `C[C@@H]1Oc2ccc(F)c(F)c2[C@@H](NC(=O)c2ccc(-c3ccnc4[nH]ccc34)nc2)[C@@H]1O` [Compound 150], for which the IC50 at PRKACA is at most 1 nM; in test [1], below 50 nM; on PRKACA-DNAJB1 it was at most 1 nM.

Regarding `C[C@H]1Oc2ccc(F)c(F)c2[C@@H](NC(=O)c2ccc(-c3ccnc4[nH]ccc34)nc2)[C@H]1O` [Compound 151], the 50% inhibitory concentration (IC50) at PRKACA is at most 1 nM; in test [1] it was below 50 nM; on PRKACA-DNAJB1, at most 1 nM.

Regarding `Cc1c[nH]c2nccc(-c3ccc(C(=O)N[C@@H]4c5ccccc5C[C@H]4N4CCCC4)cn3)c12` [Compound 152], the concentration for half-maximal inhibition (IC50) at PRKACA was 1.01 to 5 nM; in test [1], 0.01 to 100 nM; on PRKACA-DNAJB1, 1.01 to 5 nM.

For the compound `O=C(N[C@@H]1c2c(F)cc(C(F)F)cc2C[C@@H]1O)c1ccc(-c2ccnc3[nH]ccc23)nc1` [Compound 154], the IC50 on PRKACA was at most 1 nM; in test [1], below 50 nM; on PRKACA-DNAJB1, at most 1 nM.

`O=C(N[C@@H]1c2c(F)cccc2C[C@H]1N1CCCC1)c1ccc(-c2ccnc3[nH]ccc23)nc1` [Compound 157, N-[(1R,2R)-7-Fluoro-2-(pyrrolidin-1-yl)-2,3-dihydro-1H-inden-1-yl]-6-{1H-pyrrolo[2,3-b]pyridin-4-yl}pyridine-3-carboxamide]: the IC50 at PRKACA is at most 1 nM; in test [1] it was below 50 nM; at PRKACA-DNAJB1, at most 1 nM.

For `O=C(N[C@@H]1c2ccccc2C[C@H]1N1CCCC1)c1ccc(-c2ccnc3[nH]cc(F)c23)nc1` [Compound 159], the IC50 was at most 1 nM at PRKACA, 0.01 to 100 nM in test [1] and 1.01 to 5 nM at PRKACA-DNAJB1.

Take `Cc1c[nH]c2nccc(-c3ccc(C(=O)N[C@@H]4c5c(ccc(F)c5F)O[C@@H](C)[C@H]4O)cn3)c12` [Compound 160]: the results for the IC50 (at PRKACA; in test [1]; at PRKACA-DNAJB1) were at most 1 nM, below 50 nM and at most 1 nM, respectively.

Regarding `Cc1c[nH]c2nccc(-c3ccc(C(=O)N[C@@H]4c5c(ccc(F)c5F)O[C@H](C)[C@@H]4O)cn3)c12` [Compound 161], the IC50 on PRKACA is at most 1 nM; in test [1], 0.01 to 100 nM; on PRKACA-DNAJB1, at most 1 nM.

Take `Cc1c[nH]c2nccc(-c3ccc(C(=O)N[C@@H]4c5c(F)cccc5C[C@H]4N4CCCC4)cn3)c12` [Compound 165]: the IC50 on PRKACA is at most 1 nM; in test [1] it was below 50 nM; at PRKACA-DNAJB1 it was at most 1 nM.

Regarding `O=C(N[C@@H]1c2c(F)cccc2C[C@H]1N1CC[C@@H](O)C1)c1ccc(-c2ccnc3[nH]ccc23)nc1` [Compound 167], the IC50 on PRKACA is at most 1 nM; in test [1] it was 0.01 to 100 nM; at PRKACA-DNAJB1, at most 1 nM.

With `O=C(N[C@@H]1c2c(F)cccc2C[C@H]1N1CCCC1)c1ccc(-c2ccnc3[nH]cc(F)c23)nc1` [Compound 169], the results for the half-inhibitory concentration (IC50) (on PRKACA; in test [1]; on PRKACA-DNAJB1) were at most 1 nM, below 50 nM and at most 1 nM, respectively.

On to `O=C(N[C@@H]1c2c(F)cccc2C[C@H]1N1CC[C@H](F)C1)c1ccc(-c2ccnc3[nH]ccc23)nc1` [Compound 170], for which the concentration for half-maximal inhibition (IC50) on PRKACA is at most 1 nM; in test [1] it was below 50 nM; at PRKACA-DNAJB1, at most 1 nM.

As to `CO[C@@H]1CCN([C@@H]2Cc3cccc(F)c3[C@H]2NC(=O)c2ccc(-c3ccnc4[nH]ccc34)nc2)C1` [Compound 173], the IC50 at PRKACA is at most 1 nM; in test [1], 0.01 to 100 nM; at PRKACA-DNAJB1, at most 1 nM.

Turning to `Cc1c[nH]c2nccc(-c3ccc(C(=O)N[C@@H]4c5c(ccc(F)c5F)C[C@H]4N4CCCC4)cn3)c12` [Compound 175], the IC50 at PRKACA is at most 1 nM; in test [1], below 50 nM; on PRKACA-DNAJB1, at most 1 nM.
